Measurements taken from patent US20240327471A1, “IL-10 INDUCING POLYPEPTIDES AND USES THEREOF” (ENTEROME S.A., priority 2021, published 2024).

What was measured:
[1] = tested on: human CD14+ monocytes; experiment: NAT_29 dose response, IL-10 secretion from monocytes co-stimulated with LPS (AlphaLISA); type: cell-based; conditions: LPS 100 ng/ml, 24 hours
Protocol: To investigate the IL-10 inducing/enhancing capacity of NAT_29, in vitro IL-10 secretion of human immune cells in the presence of different doses of NAT_29 was tested. Briefly, human CD14+ monocytes were isolated from peripheral blood mononuclear cells (PBMCs) from healthy human volunteers by density gradient centrifugation using SepMate™-50 IVD tubes (Stemcell, Ref. 85460). The obtained PBMCs were washed thrice with Dulbeccos's phosphate buffered saline (PBS, Sigma, D88537) and lysed 10 min at room temperature in Red blood Lysis buffer 1X (Miltenyi Biotec, 130-094-183). Cells were washed with MACS buffer (Miltenyi Biotec, 130-091-221) and counted using the trypan blue dye exclusion method. CD14+monocytes were sorted using anti-human CD14 Microbeads (Miltenyi Biotec, 130-050-201) as per manufacturer's protocol. Positive CD14+ fractions were collected and seeded at 2×10^4 cells per well in 384 well plates in IMDM medium (Gibco, 12440-046) supplemented with 10% FBS and 1X antibiotic solution.
[…] IL-10 secretion were measured at 24 hours by AlphaLISA® on cell supernatants according to the supplier's protocol and read on an Envision plate reader (Perkin Elmer).

[2] = tested on: monocytes; experiment: Kinetics of IL-10, TNF-α and IL-6 secretion from monocytes co-stimulated with LPS (AlphaLISA); type: cell-based, human; conditions: 1 μM, LPS 10 ng/ml
Protocol: To confirm the anti-inflammatory potential of NAT_29 (SEQ ID NO: 1), a kinetic study was performed to test the concomitant secretion of IL-10 and the major pro-inflammatory cytokines TNF-α and IL-6. To this end, monocytes were obtained as described in Example 3 and stimulated with 1 μM NAT_29 polypeptide (SEQ ID NO: 1), co-stimulated with 10 ng/ml of LPS from E. coli O111: B4 (InvivoGen, tlrl-eblps) and placed in humidified CO2 incubator at 5% CO2/37° C. for 72 h. IL-10, TNF-α and IL-6 secretion were measured at 5, 10, 24, 48 and 72 hours by AlphaLISA® on cell supernatants according to the supplier's protocol (Perkin, ref. AL218F, AL208F, AL223F) and read on an Envision plate reader (Perkin Elmer).

[3] = tested on: TNBS-induced colitis; experiment: Acute colitis induced by TNBS in rats (Wallace score, colon Lipocalin-2, mortality); type: in vivo, Sprague-Dawley rats; conditions: intrarectal; for Wallace score: once a day, evaluated 4 days after TNBS
From the text: Next, anti-inflammatory properties of the NAT_29 polypeptide (SEQ ID NO: 1) have been evaluated in the 2,4,6-trinitrobenzene sulfonic acid (TNBS)-induced colitis model. The model of colitis induced by TNBS in rats is a validated animal model to evaluate the anti-inflammatory properties of drugs in intestinal bowel diseases (IBD). TNBS induces deep inflammation resulting in necrosis (with transmural destruction of the intestine wall) of the colon. This model is well-characterized, reliable, reproducible, and admitted by regulatory authorities in IBD (e.g., as described in Antoniou, E., et al. (2016). The TNBS-induced colitis animal model: An overview. Annals of medicine and surgery, vol. 11, 9-15, which is incorporated herein in its entirety).
To this end, the NAT_29 polypeptide (SEQ ID NO: 1) was administered by intrarectal instillation at two different concentrations (1 and 0.1 μM) in the model of acute colitis induced by TNBS (intrarectal administration at 80 mg/kg) in Sprague-Dawley rats. The anti-inflammatory effects were evaluated at the macroscopic level using validated score of Wallace and compared to those induced by the positive control (5-ASA) administered also by intrarectal instillation.
Resolution of inflammation was also evaluated using colon Lipocalin-2 (Lcn-2) quantification. Lipocalin-2, also known as neutrophil gelatinase-associated lipocalin (NGAL), is considered as a clinically relevant biomarker of IBD. […] In rodent models of colitis, a strong association has been shown between elevated levels of Lcn-2 and colitis severity.
Male Sprague-Dawley rats (Body weight: around 100-150 g) were allocated randomly and blindly 4 per cage and acclimated for one week. Rats were obtained from Janvier Laboratoires, Le Genest Saint-Isle, France.
The tested products were administered once a day by intrarectal instillation (500μl) in a prophylactic and therapeutic mode starting at day -5, i.e. 5 days before colitis induction (DO) and until euthanasia at D4, corresponding to 9 treatment days in total.
For colitis induction, Sprague Dawley rats were anesthetized for 2 hours using a subcutaneous injection of xylazine at 12.5 mg/kg/ketamin at 25 mg/kg. […] The TNBS solution at 80 mg/kg was prepared based on the mean body weight of rats, which is recorded before the TNBS solution preparation.
NAT_29 was solubilized in PBS and the active concentration for animal treatment was calculated assuming a maximum volume of colon-rectum content in rat of 3.5ml. […]
Animals were sacrificed 4 days (D4) after TNBS administration (DO) for evaluation of the intensity of colitis. Samples from distal colon were collected and used for macroscopic assessments and lipocalin quantification. […]

“KKGSRSCFFIYLDRGTKKGSRSCFFYLP (NAT_29) [28-amino-acid fragment of microbiota protein ID3166]” was tested, and the “IL-10 secretion from monocytes” value ([1]; 0.1 to 1000 nM) was “highest IL-10 levels were measured in both cell types at the highest concentration of NAT_29 tested”, the “sensitivity of monocytes versus MoDCs to the action of NAT_29” value ([1]; IL-10 secretion) was “monocytes appeared to be more sensitive than MoDCs” and the IL-6 secretion ([2]; 5, 10, 24, 48 and 72 hours) was “no significant secretion”. For the same sequence, the TNF-a secretion ([2]; 5, 10, 24, 48 and 72 hours) was “no significant secretion”, the “IL-10 secretion, fold in respect to LPS, peak” value ([2]; peak at 24 h, mean of six monocyte donors) was 2 fold and the “IL-10 secretion, fold in respect to LPS, after peak” value ([2]; until the end of the experiment (72 h)) was 1,5 Fold. The Wallace score ([3]; final concentration of 0.1 μM) was “protective effect (albeit not significant)”, the “lipocalin-2 level in the colon (ELISA)” value ([3]; final concentration of 0.1 μM, 4 days after TNBS) was “slight decrease of lipocalin-2 level (albeit not significant)” and the Wallace score ([3]; final concentration of 1 μM) was “statistically protective effect”. The “Lipocalin levels in the colon (ELISA)” value ([3]; final concentration of 1UM, 4 days after TNBS) was “significant decrease of Lipocalin levels”.
